{"source": "patent US20260232681A1", "about": "“CRYSTALLINE FORMS OF N-[4-[4-(4-MORPHOLINYL)-7H-PYRROLO[2,3-D]PYRIMIDIN-6- YL]PHENYL]-4-[[3(R)-[(L-OXO-2-PROPEN-L-YL)AMINO]-L-PIPERIDINYL]METHYL]-2-PYRIDINECARBOXAMIDE AS A COVALENT INHIBITOR OF MENIN-MLL INTERACTION” (BIOMEA FUSION, INC., priority 2023, published 2026)", "key": {"[1]": {"test_system": "human pancreatic islet beta cells", "assay": "Beta cell proliferation in human islet microtissues (Examples 107, 110)", "format": "cell-based", "experimental": "Human islet microtissues were aggregated for 5 days and then released into ultra-low attachment plates. Half of the plates were maintained in standard culture medium (5.5 mM glucose), and half were cultured in high-glucose culture medium (GTX, 8 mM glucose) starting at Day 6, for the duration of the whole experiment. Starting on Day 9 (after 3 days of GTX pre-treatment for the relevant plates), dosing with compounds was initiated, using a Tecan D300e Digital Dispenser. DMSO was normalized by volume across all wells. Media were exchanged and compounds were redosed every 2-3 days throughout the experiment. Compound dosing was randomized; to avoid compound cross-contamination between wells, all medium exchanges were performed using 96-well deep well plates with pipette tip exchange.\nFIG. 38 provides human pancreatic islet beta cell proliferation on Day 14 and Day 21. In FIG. 38, A is ATP content; B is proliferating beta cell fraction; and C is beta cell fraction. Upper graphs are standard media, and lower graphs are high glucose media. Data represents mean+−SEM of 1 donor with n=4-10 technical replicates. One-way ANOVA with Dunnet's posthoc test to DMSO control. * p<0.05; ** p<0.01; and *** p<0.001.\nThe ability of menin-MLL inhibitors to induce beta-cell (β-cell) proliferation is tested on human islet microtissue preparations (InSphero). Briefly, human islet microtissues are produced by enzymatic dissociation of the primary islet cells followed by controlled scaffold-free hanging-drop-based self-reaggregation of the islet cells (Misun et al., 2020, Adv. Biosyst. 2020, 4, 1900291). The process helps eliminate contaminating exocrine cells, while enabling homogenous and native-like distribution of endocrine cells within each islet microtissue. […]\nEffects of the compound on beta cell function and proliferation were monitored following culturing of the islets in the presence or absence of compound for 1, 2 or 3 weeks. Proliferation of beta cells and is monitored via immunofluorescence staining for appropriate markers. […]"}, "[2]": {"test_system": "type 2 diabetes mellitus adult subjects", "assay": "Clinical study in healthy and type 2 diabetes mellitus subjects (SAD, food effect, MAD; Example 111)", "format": "in vivo, human", "experimental": "In Experimental Phase 1 (SAD cohorts), 40 healthy adult subjects were randomized into 4 dose escalating cohorts of 10. In each cohort, subjects were randomized at 7:3 (active and placebo) in sequential order. Each cohort was composed of 2 sentinel subjects randomized at 1:1 (active and placebo), followed by 8 additional subjects randomized at 3:1 (active and placebo). Doses were 100 mg, 200 mg, 400 mg, and 600 mg.\nIn Experimental Phase 1 (3-period crossover, food effect study), each cohort of 12 healthy adult subjects was randomized at 1:1:1:1:1:1 in a 3-period crossover study with 6 treatment sequences.\nIn Experimental Phase 2 (MAD cohorts), 1 cohort of 16 healthy adult subjects was randomized at 3:1 (active and placebo), and 7 cohorts of type 2 diabetes mellitus adult subjects were randomized at 5:1 (active and placebo) to obtain safety and efficacy data to identify the potential optimal biological dose (OBD) and a recommended Phase 2 dose (RP2D). Doses were 100 mg, 200 mg, 400 mg, and 600 mg."}, "[3]": {"test_system": "DLBCL cell lines (DHL, THL, DEL, GCB)", "assay": "DLBCL cell line proliferation (Cell Titer Glo, four days)", "format": "cell-based", "experimental": "Compound A was tested against a THL cell line (VAL), and a DEL cell line (U2932). An expanded panel of DHL cell lines were tested for sensitivity to Compound A. Ex vivo patient samples of THL and MYC-amplified DLBCL were tested with Compound A. Sensitivity of THL and MYC-driven DLBCL in both in vitro and ex vivo models were compared with clinical reversible menin inhibitors. Compound A was tested against a panel of MM cell lines and ex vivo MM patient samples of p53del, 13qdel, and relapsed/refractory cases.\nDLBCL cell line TOLEDO was cultured in the presence of Compound A or clinical reversible menin inhibitors for six and fourteen hours. Menin protein expression was reduced up to 60% at 1 μM by Compound A after fourteen hours compared to clinical reversible inhibitors at <20% at similar concentrations. Menin protein expression was measured by the Wes system and analyzed using the Compass software (automated western blotting, Protein Simple). Signal was normalized to GAPDH and referenced to DMSO control (FIG. 171E). DLBCL and MM cell lines were cultured with Compound A, bortezomib (PS-341), or DMSO for four days and cell proliferation was measured by Cell Titer Glo. Ex vivo studies of DLBCL and MM models were conducted by measurement of cell proliferation (Cell Titer Glo) after six days of treatment with Compound A, PS-341, or DMSO control."}, "KRAS and MEN1 expression": {"test_system": "KRAS and MEN1 expression", "assay": "RNA-seq gene expression in MiaPaCa-2 cells", "format": "cell-based, human", "set-up": "dose or concentration left out as unconfirmed", "details": "MiaPaCa-2 cells after twenty-four hours", "experimental": "MOLM-13 and MiaPaCa-2 cells were incubated with Compound A for twenty-four hours and were analyzed by RNA-seq on an Illumina NextSeq 550 platform. […] Cell viability was measured using CellTiterGlo. Human ex vivo PDX tissue models harboring KRAS mutations were cultured with Compound A and clinical reversible menin inhibitors for six days. Cell viability was measured using CellTiter Glo."}, "[4]": {"test_system": "CLL samples isolated from patients", "assay": "Ex vivo CLL patient samples, antileukemic activity", "format": "cell-based, human", "details": "CLL ex vivo patient samples, 1 μM exposure"}}, "data": [{"molecule": "C=CC(=O)N[C@@H]1CCCN(Cc2ccnc(C(=O)Nc3ccc(-c4cc5c(N6CCOCC6)ncnc5[nH]4)cc3)c2)C1", "note": "[Compound A, N-[4-[4-(4-morpholinyl)-7H-pyrrolo[2,3-d]pyrimidin-6-yl]phenyl]-4-[[3(R)-[(1-oxo-2-propen-1-yl)amino]-1-piperidinyl]methyl]-2-pyridinecarboxamide]", "values": [{"measurement": "beta-cell proliferation", "setting": "[1]; glucose stress condition (8 mM glucose)", "value": "dose dependent increase"}, {"measurement": "proliferating beta cell fraction", "setting": "[1]; human islet microtissues, Day 14 and Day 21, compared to control", "value": "induced human pancreatic islet beta cells substantially"}, {"measurement": "beta-cell proliferation", "setting": "[1]; standard glucose conditions (5.5 mM glucose)", "value": "not under standard glucose conditions"}, {"measurement": "episodes of symptomatic hypoglycemia", "setting": "[2]; human patients", "value": "No episodes"}, {"measurement": "severe or serious TEAEs", "setting": "[2]; human subjects", "value": "No severe or serious TEAEs"}, {"measurement": "safety profile", "setting": "[2]; human subjects, 4 weeks of treatment", "value": "well-tolerated"}, {"measurement": "cell lethality", "setting": "[3]; DHL, THL, and DEL DLBCL cell lines, four days", "value": "> 90", "unit": "%"}, {"measurement": "growth inhibition of THL and DEL cell line models", "setting": "[3]; VAL, U2932", "value": "complete growth inhibition"}, {"measurement": "KRAS and MEN1 expression levels", "setting": "KRAS and MEN1 expression", "value": "marked reduction"}, {"measurement": "cell lethality", "setting": "[4]", "value": "> 98", "unit": "%"}]}]}
